Columns and labels:
fat-associated T cells = assay: Flow cytometry of T cell subsets in adipose tissue, stromal vascular cells and spleen of ob/ob mice; type: in vivo; settings: 45 μg per os daily 4 weeks, vs vehicle
Procedure: (§1) Splenocytes and intrahepatic lymphocytes were isolated as follows: livers and spleens were kept in RPMI-1640+FCS. Then spleens were crushed through a 70 μm nylon cell strainer (Falcon) and centrifuged (1250 rpm for 7 min) for the removal of cell debris. Red blood cells were lysed with 1 ml of cold 155 mM ammonium chloride lysis buffer and centrifuged (1250 rpm for 3 min). Splenocytes were resuspended with 1 ml RPMI+FCS. Cell viability by trypan blue staining was above 90%. For intrahepatic lymphocytes, livers were crushed through a stainless mesh (size 60, Sigma) and the cell suspension was placed in a 50-ml tube for 5 min. Lymphoprep (10 ml, Ficoll, Axis-Shield PoC AS, Oslo, Norway) was placed under similar volume of cell suspension in 50-ml tubes. Tubes were centrifuged at 1800 rpm for 18 min. Cells in the interface were collected and centrifuged at 1800 rpm for 10 min, to obtain a pellet of cells depleted of hepatocytes to a final volume of 250 μl. Approximately 1×10^6 cells/mouse liver, were recovered.
Adipose tissue (visceral fat pads) was minced and incubated in Krebs-Ringer bicarbonate buffer (3 mL/g adipose tissue) containing 10mM glucose and 2.5% bovine serum albumin, incubated with 840 U/g collagenase type I (Sigma, Rehovot, Israel)) at 37° C. for 1 hour. Cells were filtered twice through chiffon mesh (100 μm) and centrifuged 50 g for 5 min. Floating adipocytes were separated from pelleted S/V fraction. The infranatant fraction was removed and centrifuged at 200 g for five minutes to pellet the S/V cells.
For metabolic syndrome experiments, the following antibodies were used for flow cytometry: anti-CD4-Pacific Blue, anti-CD8-FITC, anti-IL-17-PE, anti CD25-PercP-Cy5.5 and anti FOX3p PE-Cy725 (all from eBioscience, San Diego, Calif.). Surface staining was performed by incubating cells with antibodies and anti-CD16/32 (blocks Fc, eBioscience) at 4° C. in FACS buffer containing PBS and 0.5% BSA, for 30 min. Cells were washed twice with FACS buffer, resuspended in FACS buffer, and analyzed by flow cytometry. Appropriate isotype controls were used in all experiments. Intracellular staining was performed using Foxp3 staining buffer kit (eBioscience, San Diego, Calif.). Cells were incubated with 1 ml Fixation/Permeabilization solution for 50 min, washed twice with Permeabilization buffer and incubated with anti-Foxp3 Ab for 50 min. Cells were then washed twice with Permeabilization buffer and resuspended with FACS buffer. Analysis was performed using a FACSCalibur instrument (Becton Dickinson, San Jose, Calif.) with FCS express V.3 software (DeNovo software, Los Angeles, Calif.).
(§2) Therefore, five groups of male C57BL/6 Ob/Ob mice were studied. Mice (6 per group) were fed (per os) daily for 4 weeks with 15 or 45 μg of GC (groups B and C, respectively) and 15 or 45 μg of ALIB-97 (groups D and E, respectively). Control mice (Group A) were administered vehicle only.

[1] = tested on: intrahepatic and intrasplenic lymphocytes; assay: FACS analysis of intrahepatic and intrasplenic lymphocytes (NKT, CD4, CD8); type: in vivo, mice
Procedure: as §1
For ConA induced hepatitis experiments, flow cytometry was performed immediately following splenocyte and hepatic lymphocyte isolation using 1×10^6 lymphocytes in 100 μl PBS with 0.1% BSA. To determine the percentage of NKT lymphocytes, FITC anti-mouse CD3 and PE anti-mouse NK1.1 antibodies were used (eBioscience, USA). CD4 and CD8 subsets were detected using FITC anti-mouse CD3 and PE-anti-mouse CD4 or CD8 antibodies. Cells were incubated for 30 min at 4° C. in the dark, washed, and resuspended in 200 μl of PBS with 0.1% BSA. Analytical cell sorting was performed for 1×10^6 cells from each group using a fluorescence-activated cell sorter (FACSTAR plus, Becton Dickinson). Only live cells were counted, and unstained cells served as controls for background fluorescence. Gates were set on the forward and side scatter to exclude dead cells and red blood cells. Data were analyzed using either the Consort 30 two-color contour plot program (Becton Dickinson, Oxnard, Calif.) or the CELLQuest 25 program.
Assessment of the effect of any of the synthetic analogs on the immune response was next determined by analysis of the cytokine serum level of IFNγ in each animal using a commercial “sandwich” ELISA kit, and by FACS analysis of intrahepatic and intrasplenic (peripheral) lymphocytes levels.

STAT1 = assay: Immunoblot of liver lysates: STAT1 phosphorylation; type: in vivo, mice; settings: IP
Procedure: For ConA induced hepatitis experiments spleen and liver lysates were lysed in RIPA buffer containing 50 mM Tris, pH 7.4, 1% NP-40, 150 mM NaCl, 0.1% SDS, 0.5% sodium deoxycholate and protease inhibitors (5 μg/ml, Sigma), with protease and phosphatase (Sigma, Rehovot, Israel).
Lysates were centrifuged twice at 4° C. for 10 minutes in 14000 rpm. Equivalent amounts of lysates (15 μg/lane), determined by Bradford assay (Bio-Rad, Rehovot, Israel), were separated by sodium dodecyl sulfate polyacrylamide gel electrophoresis (SDS-PAGE) and transferred to nitrocellulose membranes.
For ConA induced hepatitis experiments proteins were detected with phospho-specific STAT1-Tyr701, STAT6-Tyr641, STAT1, and STAT6 antibodies from Cell Signaling. β-actin (abcam, UK) was used as a loading control.
Blots were developed with horseradish peroxidase-conjugated secondary antibodies (Jackson Laboratories Bar Harbor, Me.) and Western Blot-Luminol Reagent (Santa Cruz Biotechnology, CA, USA). Cell counting and western Blot quantification was performed using total Lab (Phoretix, USA) software.

ob/ob mice = assay: Fasting glucose and glucose tolerance test in ob/ob mice; type: in vivo
Procedure: Mice underwent a glucose tolerance test (GTT) on day 30 after overnight fasting. Glucose was administered orally (1.25 g per kg). Serum glucose measurements were performed on tail-vein blood every 15 min for 3 h. Glucose levels were measured by a standard glucometer.
as §2

[2] = B6 mice, intraperitoneal, 8 h, p<0.05
[3] = B6 mice, oral administration, p<0.05
[4] = ConA induced hepatitis, C57Bl/6 mice, intraperitoneal, low dosage 1 μg/mice

## CCCCCCCCCCCCCC=CC(O)C(CO[C@@H]1OC(CO)[C@@H](O)C(O)C1O)NC(=S)NC12CC3CC(CC(C3)C1)C2 (stereo in doubt) [ALIB-97, N-adamantyl-N′-glucosylsphingosine thiourea]
fat-associated T cells
  CD4+CD25+FOXP3+ cells, ADIPOCYTES: ↑↑ (↓/↑ and ↓↓/↑↑-p≦0.05 and p≦0.01 respectively)
  CD4+CD25+IL17+ cells, SVC: ↑ (↓/↑ and ↓↓/↑↑-p≦0.05 and p≦0.01 respectively)
  CD4+FOXP3+ cells, SPLEEN: ↓ (↓/↑ and ↓↓/↑↑-p≦0.05 and p≦0.01 respectively)
  CD4+FOXP3+IL17+ cells, ADIPOCYTES: ↓ (↓/↑ and ↓↓/↑↑-p≦0.05 and p≦0.01 respectively)
  CD4+IL17+ cells, ADIPOCYTES: ↓ (↓/↑ and ↓↓/↑↑-p≦0.05 and p≦0.01 respectively)
  CD8+CD25+ cells, ADIPOCYTES: ↓ (↓/↑ and ↓↓/↑↑-p≦0.05 and p≦0.01 respectively)
  CD8+CD25+FOXP3+ cells, SPLEEN: ↑↑ (↓/↑ and ↓↓/↑↑-p≦0.05 and p≦0.01 respectively)
  CD8+CD25+FOXP3+ cells, SVC: ↓ (↓/↑ and ↓↓/↑↑-p≦0.05 and p≦0.01 respectively)
  CD8+CD25+FOXP3+IL17+ cells, ADIPOCYTES: ↓ (↓/↑ and ↓↓/↑↑-p≦0.05 and p≦0.01 respectively)
  CD8+CD25+FOXP3+IL17+ cells, SPLEEN: ↑ (↓/↑ and ↓↓/↑↑-p≦0.05 and p≦0.01 respectively)
  CD8+CD25+IL17+ cells, ADIPOCYTES: ↑ (↓/↑ and ↓↓/↑↑-p≦0.05 and p≦0.01 respectively)
  CD8+CD25+IL17+ cells, SVC: ↑ (↓/↑ and ↓↓/↑↑-p≦0.05 and p≦0.01 respectively)
  CD8+FOXP3+ cells, SPLEEN: ↑↑ (↓/↑ and ↓↓/↑↑-p≦0.05 and p≦0.01 respectively)
  CD8+FOXP3+IL17 cells, ADIPOCYTES: ↓↓ (↓/↑ and ↓↓/↑↑-p≦0.05 and p≦0.01 respectively)
  CD8+IL17+ cells, ADIPOCYTES: ↓ (↓/↑ and ↓↓/↑↑-p≦0.05 and p≦0.01 respectively)
  CD25+FOXP3+ cells, SPLEEN: ↓ (↓/↑ and ↓↓/↑↑-p≦0.05 and p≦0.01 respectively)
[1]; B6 mice, intraperitoneal, 8 h, p<0.01
  splenic CD3/NKT cells: significantly reduced
[1]; [2]
  decrease of hepatic CD3/NKT cells: more than 55%
  splenic CD3/CD4 cells: significantly reduced
[1]; B6 mice, intraperitoneal, 20 h
  splenic CD3/CD4 cells: not affected
[1]; B6 mice, intraperitoneal, 20 h, p=0.01
  increase of hepatic CD3/CD4 cells: 33%
[1]; B6 mice, oral administration
  hepatic CD3/CD8 lymphocytes: unaffected
[1]; B6 mice, oral administration, after 8 hours, p<0.05
  decrease in hepatic CD3/NK1.1 lymphocytes: 73%
[1]; [3]
  increase of splenic CD3/NK1.1 lymphocytes: > 100%
  reduction of splenic CD3/CD8 cells: 30%
[1]; B6 mice, oral administration, p=0.07
  reduction of splenic CD3/CD4 cells: 23%
[1]; B6 mice, oral administration, p=0.08
  decrease in hepatic CD3/CD4 lymphocyte ratio: 20%
[1]; [4]
  intrahepatic NKT cell levels: decrease
  intrahepatic/peripheral ratio of NKT cells: decrease
  peripheral/intrahepatic ratio of the CD4/CD8 ratio: increase
STAT1; B6 mice
  STAT1 phosphorylation of Tyr 701 in the liver: increased
STAT1; CD1d−/− mice
  STAT1 phosphorylation of Tyr 701 in the liver: increased
ob/ob mice; day 30, 15 μg per os daily
  time at which the decrease in glucose levels (GTT, relative to time 0) reached statistical significance: 90 min
ob/ob mice; day 30, 45 μg per os daily
  time at which the decrease in glucose levels (GTT, relative to time 0) reached statistical significance: 60 min

Source: patent publication US8592394B2, “Synthetic derivatives beta glycolipids and compositions thereof for the treatment of pathologic disorders” (Enzo Therapeutics, Inc., priority 2003, dated 2013)
